Laboratory results from PubChem BioAssay AID2060494 (Molecular Pharmacology Branch, DTP, NCI, 2025).

Tested on: 435261-313-R-J1-PDC complex spheroid viability
Experiment: Anticancer human tumor 435261-313-R-J1-PDC patient-derived colon adenocarcinoma cell line growth inhibition [GQUAD]
Details: for IC50: curve of first compound; for viability, T/C: stronger effect = lower value
How it was run: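 Viability of tumor cells grown as complex spheroids with endothelial and stromal cells, exposed to drug combinations. Top concentration at or near clinical Cmax (else 10 microM), diluted in half-log increments.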

[1] = second compound 0.0316 µM, first compound 0.0316 µM
[2] = second compound 0.0316 µM, first compound 0.1 µM
[3] = second compound 0.0316 µM, first compound 0.316 µM
[4] = second compound 0.0316 µM, first compound 1 µM
[5] = second compound 0.0316 µM, first compound 3.16 µM
[6] = second compound 0.0316 µM, first compound 10 µM
[7] = second compound 0.1 µM, first compound 0.0316 µM
[8] = second compound 0.1 µM, first compound 0.1 µM
[9] = second compound 0.1 µM, first compound 0.316 µM
[10] = second compound 0.1 µM, first compound 1 µM
[11] = second compound 0.1 µM, first compound 3.16 µM
[12] = second compound 0.1 µM, first compound 10 µM
[13] = second compound 0.316 µM, first compound 0.0316 µM
[14] = second compound 0.316 µM, first compound 0.1 µM
[15] = second compound 0.316 µM, first compound 0.316 µM
[16] = second compound 0.316 µM, first compound 1 µM
[17] = second compound 0.316 µM, first compound 3.16 µM
[18] = second compound 0.316 µM, first compound 10 µM
[19] = second compound 1 µM, first compound 0.0316 µM
[20] = second compound 1 µM, first compound 0.1 µM
[21] = second compound 1 µM, first compound 0.316 µM
[22] = second compound 1 µM, first compound 1 µM
[23] = second compound 1 µM, first compound 3.16 µM
[24] = second compound 1 µM, first compound 10 µM
[25] = second compound 3.16 µM, first compound 0.0316 µM
[26] = second compound 3.16 µM, first compound 0.1 µM
[27] = second compound 3.16 µM, first compound 0.316 µM
[28] = second compound 3.16 µM, first compound 1 µM
[29] = second compound 3.16 µM, first compound 3.16 µM
[30] = second compound 3.16 µM, first compound 10 µM
[31] = second compound 10 µM, first compound 0.0316 µM
[32] = second compound 10 µM, first compound 0.1 µM
[33] = second compound 10 µM, first compound 0.316 µM
[34] = second compound 10 µM, first compound 1 µM
[35] = second compound 10 µM, first compound 3.16 µM
[36] = second compound 10 µM, first compound 10 µM
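Also: spheroids exposed to the agents for seven days before readout.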
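For viability, T/C in this document: percent of vehicle control viability with DMSO wells as 100%.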

COc1ncnc(C2CC2)c1-c1ncc2cnn(Cc3ccc(-c4nc(C(F)(F)F)cn4C(C)C)cc3)c2n1 + CN(C)c1ccc(Nc2c3ccc(NC(=O)CCN4CCCC4)cc3nc3cc(NC(=O)CCN4CCCC4)ccc23)cc1
IC50 (second compound 0.0316 µM): > 10000 nM | IC50 (second compound 0.1 µM): > 10000 nM | IC50 (second compound 0.316 µM): > 10000 nM | IC50 (second compound 1 µM): > 10000 nM | IC50 (second compound 3.16 µM): 3140 nM | IC50 (second compound 10 µM): < 31.6 nM | viability, T/C [1]: 101% | viability, T/C [2]: 94.3% | viability, T/C [3]: 90% | viability, T/C [4]: 84.2% | viability, T/C [5]: 85.9% | viability, T/C [6]: 75.1% | viability, T/C [7]: 103% | viability, T/C [8]: 89.6% | viability, T/C [9]: 113% | viability, T/C [10]: 94% | viability, T/C [11]: 111% | viability, T/C [12]: 91.8% | viability, T/C [13]: 90.7% | viability, T/C [14]: 94% | viability, T/C [15]: 80.9% | viability, T/C [16]: 64% | viability, T/C [17]: 75.4% | viability, T/C [18]: 80.9% | viability, T/C [19]: 82.6% | viability, T/C [20]: 70.8% | viability, T/C [21]: 76.4% | viability, T/C [22]: 69.8% | viability, T/C [23]: 78.6% | viability, T/C [24]: 77.6% | viability, T/C [25]: 50.5% | viability, T/C [26]: 74.3% | viability, T/C [27]: 69% | viability, T/C [28]: 41.2% | viability, T/C [29]: 56.9% | viability, T/C [30]: 30.2% | viability, T/C [31]: 31.4% | viability, T/C [32]: 33.6% | viability, T/C [33]: 28.8% | viability, T/C [34]: 27.9% | viability, T/C [35]: 32.9% | viability, T/C [36]: 10.7%

Cc1[nH]c2ccccc2c1CCNCc1ccc(/C=C/C(=O)NO)cc1 + CN(C)c1ccc(Nc2c3ccc(NC(=O)CCN4CCCC4)cc3nc3cc(NC(=O)CCN4CCCC4)ccc23)cc1
IC50 (second compound 0.0316 µM): 80.3 nM | IC50 (second compound 0.1 µM): 55.8 nM | IC50 (second compound 0.316 µM): 74.7 nM | IC50 (second compound 1 µM): 61.4 nM | IC50 (second compound 3.16 µM): 25.5 nM | IC50 (second compound 10 µM): < 0.999 nM | viability, T/C (second compound 0.0316 µM, first compound 0.000999 µM): 84.5% | viability, T/C (second compound 0.0316 µM, first compound 0.00316 µM): 86% | viability, T/C (second compound 0.0316 µM, first compound 0.00999 µM): 95% | viability, T/C [1]: 69.2% | viability, T/C (second compound 0.0316 µM, first compound 0.0999 µM): 45.9% | viability, T/C [3]: 9.48% | viability, T/C (second compound 0.1 µM, first compound 0.000999 µM): 134% | viability, T/C (second compound 0.1 µM, first compound 0.00316 µM): 96.6% | viability, T/C (second compound 0.1 µM, first compound 0.00999 µM): 79.4% | viability, T/C [7]: 59.7% | viability, T/C (second compound 0.1 µM, first compound 0.0999 µM): 50.8% | viability, T/C [9]: 11% | viability, T/C (second compound 0.316 µM, first compound 0.000999 µM): 104% | viability, T/C (second compound 0.316 µM, first compound 0.00316 µM): 99.5% | viability, T/C (second compound 0.316 µM, first compound 0.00999 µM): 91.4% | viability, T/C [13]: 69.4% | viability, T/C (second compound 0.316 µM, first compound 0.0999 µM): 43.8% | viability, T/C [15]: 9.1% | viability, T/C (second compound 1 µM, first compound 0.000999 µM): 76.7% | viability, T/C (second compound 1 µM, first compound 0.00316 µM): 74.3% | viability, T/C (second compound 1 µM, first compound 0.00999 µM): 58.5% | viability, T/C [19]: 62.1% | viability, T/C (second compound 1 µM, first compound 0.0999 µM): 45.5% | viability, T/C [21]: 10.1% | viability, T/C (second compound 3.16 µM, first compound 0.000999 µM): 119% | viability, T/C (second compound 3.16 µM, first compound 0.00316 µM): 79.2% | viability, T/C (second compound 3.16 µM, first compound 0.00999 µM): 62.7% | viability, T/C [25]: 56.2% | viability, T/C (second compound 3.16 µM, first compound 0.0999 µM): 28.5% | viability, T/C [27]: 6.97% | viability, T/C (second compound 10 µM, first compound 0.000999 µM): 44.3% | viability, T/C (second compound 10 µM, first compound 0.00316 µM): 49.4% | viability, T/C (second compound 10 µM, first compound 0.00999 µM): 23.3% | viability, T/C [31]: 18.3% | viability, T/C (second compound 10 µM, first compound 0.0999 µM): 22.6% | viability, T/C [33]: 4.75%

O=c1[nH]cc(F)c(=O)[nH]1 + CN(C)c1ccc(Nc2c3ccc(NC(=O)CCN4CCCC4)cc3nc3cc(NC(=O)CCN4CCCC4)ccc23)cc1
IC50 (second compound 0.0316 µM): > 10000 nM | IC50 (second compound 0.1 µM): > 10000 nM | IC50 (second compound 0.316 µM): > 10000 nM | IC50 (second compound 1 µM): > 10000 nM | IC50 (second compound 3.16 µM): > 10000 nM | IC50 (second compound 10 µM): < 31.6 nM | viability, T/C [1]: 118% | viability, T/C [2]: 102% | viability, T/C [3]: 105% | viability, T/C [4]: 90.8% | viability, T/C [5]: 71.6% | viability, T/C [6]: 99.9% | viability, T/C [7]: 117% | viability, T/C [8]: 114% | viability, T/C [9]: 126% | viability, T/C [10]: 86.8% | viability, T/C [11]: 86.9% | viability, T/C [12]: 78.6% | viability, T/C [13]: 104% | viability, T/C [14]: 103% | viability, T/C [15]: 87.4% | viability, T/C [16]: 97.2% | viability, T/C [17]: 111% | viability, T/C [18]: 85.8% | viability, T/C [19]: 118% | viability, T/C [20]: 91.8% | viability, T/C [21]: 98.5% | viability, T/C [22]: 104% | viability, T/C [23]: 81.8% | viability, T/C [24]: 73.5% | viability, T/C [25]: 73.3% | viability, T/C [26]: 78.1% | viability, T/C [27]: 73.4% | viability, T/C [28]: 63.3% | viability, T/C [29]: 70.2% | viability, T/C [30]: 60.4% | viability, T/C [31]: 29.4% | viability, T/C [32]: 66% | viability, T/C [33]: 41.8% | viability, T/C [34]: 40% | viability, T/C [35]: 43.3% | viability, T/C [36]: 31.4%
